Our source for the IC50 values is patent publication US12336981B2, “Compounds and compositions for the inhibition of NAMPT” (Valo Health, Inc., priority 2010, dated 2025).

For one assay, the target named is T1, NAMPT (Homo sapiens, UniProt P43490).
T1 construct: His tag; host or cells: E. coli
The assay can be described thus: Biochemical inhibition assay: NAMPT enzymatic reaction, NMN quantified by mass spectrometry. The note with it: NAMPT enzymatic reaction; read-out: Biochem IC50. In a few lines: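 Inhibition of E. coli-expressed His-tagged human NAMPT, measured as NMN formation by mass spectrometry after a 30 min room-temperature reaction containing 1 μM NAM, 100 μM PRPP and 2.5 mM ATP.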

For a further assay, the system named is A2780 cells. The assay can be described thus: In-vitro cell proliferation assay (SRB), A2780 cells. Type of assay: cell-based. The note with it: Homo sapiens, A2780, 72 h, A2780 cells, 72 hours, SRB; read-out: A2780 IC50. Summed up: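 Viable cells measured by SRB staining after 6% TCA fixation, absorbance 570 nm. Media-only background subtracted; % inhibition derived at two compound concentrations.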

Structures are written as SMILES.

T1 sequence (P43490 whole entry): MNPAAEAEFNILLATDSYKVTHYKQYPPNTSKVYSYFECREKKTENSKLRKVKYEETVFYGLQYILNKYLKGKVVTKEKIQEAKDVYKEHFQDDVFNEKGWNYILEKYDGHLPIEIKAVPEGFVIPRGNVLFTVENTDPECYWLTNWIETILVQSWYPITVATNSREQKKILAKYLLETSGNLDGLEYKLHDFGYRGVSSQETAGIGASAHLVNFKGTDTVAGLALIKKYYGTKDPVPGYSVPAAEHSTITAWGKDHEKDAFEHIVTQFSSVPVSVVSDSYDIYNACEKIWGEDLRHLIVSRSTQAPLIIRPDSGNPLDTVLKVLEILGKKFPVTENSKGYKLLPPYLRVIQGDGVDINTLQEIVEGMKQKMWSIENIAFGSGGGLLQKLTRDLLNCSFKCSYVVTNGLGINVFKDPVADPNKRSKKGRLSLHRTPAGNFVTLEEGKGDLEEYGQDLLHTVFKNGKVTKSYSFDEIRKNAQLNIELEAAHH

For `Cc1cc(C)c(S(=O)(=O)c2ccc(CNC(=O)c3cnc4nccn4c3)cc2)cc1C`, the IC50 (usually the concentration that gives 50% inhibition) was 6.9 nM on NAMPT and 24 nM in the assay on A2780 cells.

Consider `Cc1cc(C)c(S(=O)(=O)c2ccc(CNC(=O)c3cc4ccncc4o3)cc2)cc1C`, for which the IC50 at NAMPT turned out to be 9.1 nM; with A2780 cells it was 14.1 nM.

In the case of `O=C(NCc1ccc(S(=O)(=O)c2cc(F)cc(Cl)c2)cc1)c1cc2ccncc2s1`, the results for the half-inhibitory concentration (IC50) at NAMPT and in the assay with A2780 cells were 1.4 nM and 0.6 nM, respectively.

On to `O=C(NCc1ccc(S(=O)(=O)c2cc(F)cc(Cl)c2)cc1)c1cc2ccncc2o1`, for which the results for the IC50 on NAMPT and in the assay with A2780 cells were 17.8 nM and 3.1 nM, respectively.

Turning to `O=C(NCc1ccc(S(=O)(=O)c2cc(F)cc(Cl)c2)cc1)c1cnc2nccn2c1`, the IC50 is 2.4 nM at NAMPT and 2.9 nM with A2780 cells.

As to `O=C(NCc1ccc(S(=O)(=O)c2cc(F)cc(Cl)c2)cc1)c1ccc2nccn2c1`, the values for the IC50 on NAMPT and in the assay with A2780 cells were 3.9 nM and 0.3 nM, respectively.

For the molecule `COc1cc(Cl)cc(S(=O)(=O)c2ccc(CNC(=O)c3cc4ccncc4o3)cc2)c1`, the IC50 on NAMPT turned out to be 26.5 nM; in the assay with A2780 cells, 1.5 nM.

As to `COc1cc(Cl)cc(S(=O)(=O)c2ccc(CNC(=O)c3ccc4nccn4c3)cc2)c1`, the figures for the IC50 on NAMPT and in the assay with A2780 cells were 9.2 nM and 1.5 nM, respectively.

For the molecule `COc1cc(Cl)cc(S(=O)(=O)c2ccc(CNC(=O)c3cnc4[nH]ncc4c3)cc2)c1`, the IC50 on NAMPT stood at 9.3 nM; in the assay with A2780 cells, 2.5 nM.

As to `COc1cc(Cl)cc(S(=O)(=O)c2ccc(CNC(=O)c3cnc4nccn4c3)cc2)c1`, the IC50 at NAMPT amounted to 1.3 nM; in the assay with A2780 cells, 0.8 nM.

Turning to `COc1cc(Cl)cc(S(=O)(=O)c2ccc(CNC(=O)c3cc4ccncc4s3)cc2)c1`, the IC50 at NAMPT worked out at 4.1 nM; in the assay on A2780 cells, 1.1 nM.

For `Cc1cc(Cl)cc(S(=O)(=O)c2ccc(CNC(=O)c3cnc4[nH]ncc4c3)cc2)c1`, the values for the concentration for half-maximal inhibition (IC50) on NAMPT and in the assay with A2780 cells were 6.2 nM and 2.6 nM, respectively.

Consider `Cc1cc(Cl)cc(S(=O)(=O)c2ccc(CNC(=O)c3cnc4nccn4c3)cc2)c1`, for which the results for the IC50 on NAMPT and in the assay on A2780 cells were 4.8 nM and 2.3 nM, respectively.

Take `Cc1cc(Cl)cc(S(=O)(=O)c2ccc(CNC(=O)c3ccc4nccn4c3)cc2)c1`: the IC50 at NAMPT was found to be 6.4 nM; in the assay with A2780 cells, 2 nM.

Take `O=C(NCc1ccc(S(=O)(=O)c2cccc(Cl)c2)cc1)c1cc2ncccc2[nH]1`: the values for the IC50 on NAMPT and in the assay on A2780 cells were 3.9 nM and 13 nM, respectively.

Regarding `O=C(NCc1ccc(S(=O)(=O)c2cccc(Cl)c2)cc1)c1cnc2nccn2c1`, the IC50 on NAMPT is 1.3 nM; with A2780 cells it was 1.2 nM.

As to `N#Cc1cccc(S(=O)(=O)c2ccc(CNC(=O)c3cc4cnccc4[nH]3)cc2)c1`, the IC50 on NAMPT is 12.1 nM; in the assay with A2780 cells, 11.3 nM.

As for `N#Cc1cccc(S(=O)(=O)c2ccc(CNC(=O)c3cnc4nccn4c3)cc2)c1`, the IC50 turned out to be 5.9 nM on NAMPT and 19.2 nM in the assay with A2780 cells.

`N#Cc1cccc(S(=O)(=O)c2ccc(CNC(=O)c3cc4ccncc4s3)cc2)c1`: the IC50 at NAMPT is 3.5 nM; with A2780 cells it was 5.6 nM.

Regarding `CCOc1cccc(S(=O)(=O)c2ccc(CNC(=O)c3cc4ccncc4s3)cc2)c1F`, the IC50 at NAMPT is 3.7 nM; in the assay on A2780 cells, 12.9 nM.

With `CCOc1cccc(S(=O)(=O)c2ccc(CNC(=O)c3cc4cnccc4[nH]3)cc2)c1F`, the IC50 turned out to be 31.2 nM at NAMPT and 11.6 nM with A2780 cells.

In the case of `CCOc1cccc(S(=O)(=O)c2ccc(CNC(=O)c3cc4ccncc4o3)cc2)c1F`, the IC50 at NAMPT amounted to 17.5 nM; in the assay with A2780 cells it was 22.7 nM.

Consider `CCOc1cccc(S(=O)(=O)c2ccc(CNC(=O)c3cnc4nccn4c3)cc2)c1F`, for which the IC50 at NAMPT turned out to be 4 nM; in the assay on A2780 cells it was 19.7 nM.

With `CCOc1cccc(S(=O)(=O)c2ccc(CNC(=O)c3ccc4nccn4c3)cc2)c1F`, the figures for the IC50 on NAMPT and with A2780 cells were 5 nM and 6.2 nM, respectively.

For `CCOc1cc(S(=O)(=O)c2ccc(CNC(=O)c3ccc4nccn4c3)cc2)ccc1F`, the IC50 amounted to 17 nM on NAMPT and 6 nM in the assay with A2780 cells.

On to `CCOc1cc(S(=O)(=O)c2ccc(CNC(=O)c3cc4cnccc4[nH]3)cc2)ccc1F`, for which the IC50 was 82.4 nM at NAMPT and 4.4 nM in the assay with A2780 cells.
